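The compound was tested at five concentrations on cells cultured in 96-well plates, with a 48-hour exposure period. GI50 = concentration required for 50% inhibition of growth. TGI denotes the concentration required for complete inhibition of growth.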
Assays:
Test in all cases: NCI anticancer screen, dose series, 48 h
[1] = test system: RPMI-8226 leukemia
[2] = test system: CCRF-CEM leukemia
[3] = test system: NCI/ADR-RES ovarian
[4] = test system: U251 CNS
[5] = test system: OVCAR-4 ovarian
[6] = test system: LOX IMVI melanoma
[7] = test system: MDA-MB-468 breast
[8] = test system: OVCAR-3 ovarian
[9] = test system: OVCAR-5 ovarian
[10] = test system: IGROV1 ovarian
[11] = test system: UACC-257 melanoma
[12] = test system: SN12C renal
[13] = test system: NCI-H226 lung
[14] = test system: MCF7 breast
[15] = test system: SW-620 colon
[16] = test system: A498 renal
[17] = test system: A549 NSCLC
[18] = test system: OVCAR-8 ovarian
[19] = test system: ACHN renal
[20] = test system: SK-MEL-28 melanoma
[21] = test system: M14 melanoma
[22] = test system: SK-OV-3 ovarian
[23] = test system: 786-0 renal
[24] = test system: K-562 leukemia
[25] = test system: NCI-H460 lung
[26] = test system: RXF 393 renal
[27] = test system: MDA-MB-435
[28] = test system: BT-549 breast
[29] = test system: HCC-2998 colon
[30] = test system: MOLT-4 leukemia
[31] = test system: SF-295 CNS
[32] = test system: UACC-62 melanoma
[33] = test system: SK-MEL-5 melanoma
[34] = test system: PC-3 prostate
[35] = test system: HL-60(TB) leukemia
[36] = test system: TK-10 renal
[37] = test system: EKVX NSCLC
[38] = test system: HOP-92 NSCLC
[39] = test system: HCT-15 colon
[40] = test system: HS 578T breast
[41] = test system: DU-145 prostate
[42] = test system: T-47D breast
[43] = test system: HCT-116 colon
[44] = test system: SF-268 CNS
[45] = test system: COLO 205 colon
[46] = test system: MALME-3M melanoma
[47] = test system: NCI-H522 lung
[48] = test system: KM12 colon
[49] = test system: HOP-62 NSCLC
[50] = test system: SF-539 CNS
[51] = test system: CAKI-1 renal
[52] = test system: NCI-H23 lung
[53] = test system: HT29 colon
[54] = test system: SR leukemia
[55] = test system: SNB-19 CNS

## Clc1ccc(-c2nc3c4c(-c5ccccc5)c(-c5ccccc5)n(Cc5ccccc5)c4ncn3n2)cc1
[1]
  GI50: 2.46 µM
  TGI: 8.69 µM
[2]
  GI50: 9.15 µM
  TGI: 51 µM
[3]
  GI50: 24.2 µM
  TGI: 97 µM
[4]
  GI50: 4.58 µM
  TGI: 33.5 µM
[5]
  GI50: 10.3 µM
  TGI: > 100 µM
[6]
  GI50: 10.9 µM
  TGI: 25.2 µM
[7]
  GI50: 2.84 µM
  TGI: 10.3 µM
[8]
  GI50: 4.76 µM
  TGI: > 100 µM
[9]
  GI50: 21.3 µM
  TGI: 90.3 µM
[10]
  GI50: 8.02 µM
  TGI: 85.8 µM
[11]
  GI50: 4.17 µM
  TGI: 34.2 µM
[12]
  GI50: 7.73 µM
  TGI: 46 µM
[13]
  GI50: 16.3 µM
  TGI: 56.9 µM
[14]
  GI50: 8.31 µM
  TGI: 61.8 µM
[15]
  GI50: 12.5 µM
  TGI: > 100 µM
[16]
  GI50: 23 µM
  TGI: 63 µM
[17]
  GI50: 20.6 µM
  TGI: > 100 µM
[18]
  GI50: 12.5 µM
  TGI: > 100 µM
[19]
  GI50: 20.8 µM
  TGI: 79.7 µM
[20]
  GI50: 5.33 µM
  TGI: 47.1 µM
[21]
  GI50: 12 µM
  TGI: 77.7 µM
[22]
  GI50: 12.8 µM
  TGI: 46.7 µM
[23]
  GI50: 12.6 µM
  TGI: 93.3 µM
[24]
  GI50: 4.84 µM
  TGI: > 100 µM
[25]
  GI50: 8.24 µM
  TGI: 35.4 µM
[26]
  GI50: 14.2 µM
  TGI: 39.9 µM
[27]
  GI50: 4.92 µM
  TGI: 71.3 µM
[28]
  GI50: 4.35 µM
  TGI: 22.5 µM
[29]
  GI50: 6.37 µM
  TGI: 39.7 µM
[30]
  GI50: 11.7 µM
  TGI: 58.2 µM
[31]
  GI50: 11.5 µM
  TGI: 25.7 µM
[32]
  GI50: 3.59 µM
  TGI: 15.2 µM
[33]
  GI50: 3.26 µM
  TGI: 12.9 µM
[34]
  GI50: 3.51 µM
  TGI: 97.3 µM
[35]
  GI50: 3.08 µM
  TGI: 15.5 µM
[36]
  GI50: 19 µM
  TGI: > 100 µM
[37]
  GI50: 4.6 µM
  TGI: 48.7 µM
[38]
  GI50: 1.9 µM
  TGI: 9.53 µM
[39]
  GI50: 20.5 µM
  TGI: > 100 µM
[40]
  GI50: 9.38 µM
  TGI: 38.2 µM
[41]
  GI50: 19.1 µM
  TGI: > 100 µM
[42]
  GI50: 3.5 µM
  TGI: 62.5 µM
[43]
  GI50: 3.53 µM
  TGI: 35.2 µM
[44]
  GI50: 12.2 µM
  TGI: > 100 µM
[45]
  GI50: 4.66 µM
  TGI: 16.8 µM
[46]
  GI50: 2.75 µM
  TGI: 9.5 µM
[47]
  GI50: 5.95 µM
  TGI: 43.7 µM
[48]
  GI50: 5.17 µM
  TGI: 36.5 µM
[49]
  GI50: 16.1 µM
  TGI: 38.4 µM
[50]
  GI50: 15.8 µM
  TGI: 33.5 µM
[51]
  GI50: 21.4 µM
  TGI: 89.2 µM
[52]
  GI50: 6.88 µM
  TGI: 44.4 µM
[53]
  GI50: 6.18 µM
  TGI: > 100 µM
[54]
  GI50: 13 µM
  TGI: 36.5 µM
[55]
  GI50: 4.8 µM
  TGI: > 100 µM

Reference: PubChem BioAssay (NCI)
